Assay results from ChEMBL document CHEMBL3046322, “Insect growth regulatory effects by diterpenes from Calceolaria talcana Grau & Ehrhart (Calceolariaceae: Scrophulariaceae) against Spodoptera frugiperda and Drosophila melanogaster” (2013).
Active and inactive are the calls of the source. The rule behind the calls is not given here.

Key:
Drosophila melanogaster [1] = assay: Insecticidal activity against Drosophila melanogaster larvae fed with compound incorporated diet assessed as mortality at 5 to 100 ug/ml after 72 hr by not choice test (reference value: 0%); format: functional, organism-based
Spodoptera frugiperda [2] = assay: Growth inhibitory activity against Spodoptera frugiperda (fall armyworm) larvae fed with compound containing diet assessed as relative growth index at 50 ug/ml (reference value: 1.0 no_unit); format: functional
Spodoptera frugiperda [3] = assay: Growth inhibitory activity against Spodoptera frugiperda (fall armyworm) larvae fed with compound containing diet assessed as growth index at 25 ug/ml (reference value: 0.95 +/-0.02 no_unit); format: functional
Spodoptera frugiperda [4] = assay: Growth inhibitory activity against Spodoptera frugiperda (fall armyworm) larvae fed with compound containing diet assessed as relative growth index at 10 ug/ml (reference value: 1.0 no_unit); format: functional
Spodoptera frugiperda [5] = assay: Growth inhibitory activity against po dosed fourth-instar larvae of Spodoptera frugiperda (fall armyworm) assessed as proportion of prothetely appearance of precocious pupal structure in larvae after 48 to 72 hr; format: functional; design: scale not given: the % may be the effect or the level left
Spodoptera frugiperda [6] = assay: Growth inhibitory activity against Spodoptera frugiperda (fall armyworm) larvae fed with compound containing diet assessed as growth index at 50 ug/ml (reference value: 0.95 +/-0.02 no_unit); format: functional
Spodoptera frugiperda [7] = assay: Growth inhibitory activity against Spodoptera frugiperda (fall armyworm) larvae fed with compound containing diet assessed as growth index at 35 ug/ml (reference value: 0.95 +/-0.02 no_unit); format: functional
Drosophila melanogaster [8] = assay: Insecticidal activity against Drosophila melanogaster larvae fed with compound incorporated diet assessed as mortality at 20 ug/ml after 72 hr by not choice test (reference value: 0%); format: functional
Spodoptera frugiperda [9] = assay: Growth inhibitory activity against Spodoptera frugiperda (fall armyworm) larvae fed with compound containing diet assessed as relative growth index at 25 ug/ml (reference value: 1.0 no_unit); format: functional
Spodoptera frugiperda [10] = assay: Growth inhibitory activity against Spodoptera frugiperda (fall armyworm) larvae fed with compound containing diet assessed as relative growth index at 35 ug/ml (reference value: 1.0 no_unit); format: functional
Drosophila melanogaster [11] = assay: Insecticidal activity against Drosophila melanogaster larvae fed with compound incorporated diet assessed as mortality at 50 ug/ml after 72 hr by not choice test (reference value: 0%); format: functional
Drosophila melanogaster [12] = assay: Insecticidal activity against Drosophila melanogaster larvae fed with compound incorporated diet assessed as mortality at 100 ug/ml after 72 hr by not choice test (reference value: 0%); format: functional
Spodoptera frugiperda [13] = assay: Growth inhibitory activity against Spodoptera frugiperda (fall armyworm) larvae fed with compound containing diet assessed as growth index at 10 ug/ml (reference value: 0.95 +/-0.02 no_unit); format: functional
Spodoptera frugiperda [14] = assay: Growth inhibitory activity against po dosed Spodoptera frugiperda (fall armyworm) larvae assessed as promotion of apolysis to fifth instar with ecdysis inhibition at 5 to 20 ug/ml; format: functional, organism-based
Spodoptera frugiperda [15] = assay: Growth inhibitory activity against Spodoptera frugiperda (fall armyworm) larvae fed with compound containing diet assessed as reduction in adult emergence at 20 ug/ml; format: functional
Spodoptera frugiperda [16] = assay: Growth inhibitory activity against Spodoptera frugiperda (fall armyworm) larvae fed with compound containing diet assessed as reduction in adult emergence at 35 ug/ml; format: functional
Spodoptera frugiperda [17] = assay: Growth inhibitory activity against first-instar larval stage of Spodoptera frugiperda (fall armyworm) fed with compound incorporated diet assessed as weight gained at 25 ug/ml after 7 days (reference value: 100%); format: functional; design: scale not given: the % may be the effect or the level left
Spodoptera frugiperda [18] = assay: Insecticidal activity against first-instar larval stage of Spodoptera frugiperda (fall armyworm) fed with compound incorporated diet assessed as mortality at 50 ug/ml after 21 days (reference value: 5.6%); format: functional; details: 504 h
Spodoptera frugiperda [19] = assay: Growth inhibitory activity against Spodoptera frugiperda (fall armyworm) larvae fed with compound containing diet assessed as delay in time to pupation; format: functional, organism-based
Spodoptera frugiperda [20] = assay: Growth inhibitory activity against first-instar larval stage of Spodoptera frugiperda (fall armyworm) fed with compound incorporated diet assessed as weight gained at 25 ug/ml after 21 days (reference value: 100%); format: functional; design: scale not given: the % may be the effect or the level left
Spodoptera frugiperda [21] = assay: Growth inhibitory activity against first-instar larval stage of Spodoptera frugiperda (fall armyworm) fed with compound incorporated diet assessed as length gained at 50 ug/ml after 7 days (reference value: 100%); format: functional
Spodoptera frugiperda [22] = assay: Acute toxicity against last larval stage of Spodoptera frugiperda (fall armyworm) assessed as survival at 10 ug/ml applied topically onto abdomen measured after 24 hr (reference value: 98.8 +/-3.5%); format: functional
Spodoptera frugiperda [23] = assay: Growth inhibitory activity against first-instar larval stage of Spodoptera frugiperda (fall armyworm) fed with compound incorporated diet assessed as weight gained at 10 ug/ml after 7 days (reference value: 100%); format: functional; design: scale not given: the % may be the effect or the level left
Spodoptera frugiperda [24] = assay: Insecticidal activity against first-instar larval stage of Spodoptera frugiperda (fall armyworm) fed with compound incorporated diet assessed as mortality at 10 ug/ml after 7 days (reference value: 5.6%); format: functional; details: 168 h
Spodoptera frugiperda [25] = assay: Growth inhibitory activity against first-instar larval stage of Spodoptera frugiperda (fall armyworm) fed with compound incorporated diet assessed as length gained at 10 ug/ml after 21 days (reference value: 100%); format: functional
Spodoptera frugiperda [26] = assay: Growth inhibitory activity against first-instar larval stage of Spodoptera frugiperda (fall armyworm) fed with compound incorporated diet assessed as weight gained at 10 ug/ml after 21 days (reference value: 100%); format: functional
Spodoptera frugiperda [27] = assay: Growth inhibitory activity against first-instar larval stage of Spodoptera frugiperda (fall armyworm) fed with compound incorporated diet assessed as length gained at 25 ug/ml after 7 days (reference value: 100%); format: functional; design: scale not given: the % may be the effect or the level left
Spodoptera frugiperda [28] = assay: Growth inhibitory activity against first-instar larval stage of Spodoptera frugiperda (fall armyworm) fed with compound incorporated diet assessed as length gained at 10 ug/ml after 7 days (reference value: 100%); format: functional
Spodoptera frugiperda [29] = assay: Insecticidal activity against first-instar larval stage of Spodoptera frugiperda (fall armyworm) fed with compound incorporated diet assessed as mortality at 25 ug/ml after 7 days (reference value: 5.6%); format: functional; details: 168 h
Spodoptera frugiperda [30] = assay: Insecticidal activity against first-instar larval stage of Spodoptera frugiperda (fall armyworm) fed with compound incorporated diet assessed as mortality at 10 ug/ml after 21 days (reference value: 5.6%); format: functional; details: 504 h
Spodoptera frugiperda [31] = assay: Insecticidal activity against first-instar larval stage of Spodoptera frugiperda (fall armyworm) fed with compound incorporated diet assessed as mortality at 50 ug/ml after 7 days (reference value: 5.6%); format: functional; details: 168 h
Spodoptera frugiperda [32] = assay: Growth inhibitory activity against Spodoptera frugiperda (fall armyworm) larvae fed with compound containing diet assessed as delay in adult emergence; format: functional, organism-based
Spodoptera frugiperda [33] = assay: Growth inhibitory activity against first-instar larval stage of Spodoptera frugiperda (fall armyworm) fed with compound incorporated diet assessed as weight gained at 50 ug/ml after 21 days (reference value: 100%); format: functional
Spodoptera frugiperda [34] = assay: Insecticidal activity against first-instar larval stage of Spodoptera frugiperda (fall armyworm) fed with compound incorporated diet assessed as mortality at 25 ug/ml after 21 days (reference value: 5.6%); format: functional; details: 504 h
Spodoptera frugiperda [35] = assay: Growth inhibitory activity against first-instar larval stage of Spodoptera frugiperda (fall armyworm) fed with compound incorporated diet assessed as length gained at 50 ug/ml after 21 days (reference value: 100%); format: functional
Spodoptera frugiperda [36] = assay: Growth inhibitory activity against first-instar larval stage of Spodoptera frugiperda (fall armyworm) fed with compound incorporated diet assessed as weight gained at 50 ug/ml after 7 days (reference value: 100%); format: functional; design: scale not given: the % may be the effect or the level left
Spodoptera frugiperda [37] = assay: Acute toxicity against last larval stage of Spodoptera frugiperda (fall armyworm) assessed as survival at 25 ug/ml applied topically onto abdomen measured after 24 hr (reference value: 98.8 +/-3.5%); format: functional
Spodoptera frugiperda [38] = assay: Growth inhibitory activity against first-instar larval stage of Spodoptera frugiperda (fall armyworm) fed with compound incorporated diet assessed as length gained at 25 ug/ml after 21 days (reference value: 100%); format: functional; design: scale not given: the % may be the effect or the level left

C=C(C)[C@@H]1CC[C@]2(C)CC[C@]3(C)[C@H](CC[C@@H]4[C@@]5(C)CC[C@H](O)C(C)(C)[C@@H]5CC[C@]43C)[C@@H]12
mortality (Drosophila melanogaster [1]): inactive

C[C@@H]1O[C@@H](O[C@@H]2[C@@H](O)[C@H](OCCc3ccc(O)c(O)c3)O[C@H](CO)[C@H]2OC(=O)/C=C/c2ccc(O)c(O)c2)[C@H](O)[C@H](O)[C@H]1O [ACETOSIDE]
Growth_index (Spodoptera frugiperda [2]): 0.1 | Growth_index (Spodoptera frugiperda [3]): 0.41 | Growth_index (Spodoptera frugiperda [4]): 0.67 | Activity (Spodoptera frugiperda [5]): 30% | Growth_index (Spodoptera frugiperda [6]): 0.07 | Growth_index (Spodoptera frugiperda [7]): 0.09 | mortality at 20 µg/mL (Drosophila melanogaster [8]): 92% | Growth_index (Spodoptera frugiperda [9]): 0.45 | Growth_index (Spodoptera frugiperda [10]): 0.15 | mortality at 50 µg/mL (Drosophila melanogaster [11]): 100% | mortality at 100 µg/mL (Drosophila melanogaster [12]): 100% | Growth_index (Spodoptera frugiperda [13]): 0.66 | Activity (Spodoptera frugiperda [14]): Active

CC(=O)O[C@@H]1C[C@H]2C(C)(C)C(=O)C=C[C@]2(C)[C@H]2CC[C@@]3(C)[C@H](c4ccoc4)OC(=O)[C@H]4O[C@]43[C@@]21C [GEDUNIN]
inhibition at 20 µg/mL (Spodoptera frugiperda [15]): 0% | inhibition at 35 µg/mL (Spodoptera frugiperda [16]): 0% | Growth_index (Spodoptera frugiperda [2]): 0.11 | Activity (Spodoptera frugiperda [17]): 3.3% | mortality at 50 µg/mL (Spodoptera frugiperda [18]): 98.7% | inhibition (Spodoptera frugiperda [19]): Active | Activity (Spodoptera frugiperda [20]): 0% | Growth_index (Spodoptera frugiperda [3]): 0.51 | Length gain relative to control (Spodoptera frugiperda [21]): 16.7% | Activity (Spodoptera frugiperda [22]): 54.7% | Activity (Spodoptera frugiperda [23]): 7.1% | mortality at 10 µg/mL (Spodoptera frugiperda [24]): 33% | Length gained relative to control (Spodoptera frugiperda [25]): 0% | Growth_index (Spodoptera frugiperda [4]): 0.71 | Weight gain (% of control) (Spodoptera frugiperda [26]): 0% | Activity (Spodoptera frugiperda [5]): 30% | Activity (Spodoptera frugiperda [27]): 20% | Larval length gained (% of control) (Spodoptera frugiperda [28]): 32.5% | Growth_index (Spodoptera frugiperda [6]): 0.1 | mortality at 25 µg/mL (Spodoptera frugiperda [29]): 38% | mortality at 10 µg/mL (Spodoptera frugiperda [30]): 100% | mortality at 50 µg/mL (Spodoptera frugiperda [31]): 70.8% | inhibition (Spodoptera frugiperda [32]): Active | Weight gain relative to control (Spodoptera frugiperda [33]): 2.05% | mortality at 20 µg/mL (Drosophila melanogaster [8]): 87.1% | Growth_index (Spodoptera frugiperda [9]): 0.55 | mortality at 25 µg/mL (Spodoptera frugiperda [34]): 100% | Length gained (% of control) (Spodoptera frugiperda [35]): 11.6% | mortality at 50 µg/mL (Drosophila melanogaster [11]): 100% | Activity (Spodoptera frugiperda [36]): 1.9% | mortality at 100 µg/mL (Drosophila melanogaster [12]): 11% | Growth_index (Spodoptera frugiperda [13]): 0.77 | Activity (Spodoptera frugiperda [37]): 14.1% | Activity (Spodoptera frugiperda [38]): 0% | Activity (Spodoptera frugiperda [14]): Active

CC1OC2=C(C(=O)c3ccccc3C2=O)C1(C)C (stereo unspecified)
mortality (Drosophila melanogaster [1]): inactive

CC[C@H](CC[C@@H](C)[C@H]1CC[C@H]2[C@@H]3CC=C4C[C@@H](O)CC[C@]4(C)[C@H]3CC[C@]12C)C(C)C
mortality (Drosophila melanogaster [1]): inactive
